In experiment [1] the target is T1, complex I (NADH:ubiquinone oxidoreductase), Pd-CI (Paracoccus denitrificans, UniProt A1B487+A1B495+A1B497).
T1 construct: gene nuoD; intact purified complex I, His6-tag on C-terminus of Nqo5 (Pd-Nqo5^His6); with multisubunit complex (14 core Nqo subunits plus PdNUMM, PdNUYM, PdN7BM)
The experiment in a line: NADH:DQ oxidoreductase assay, detergent-solubilized purified enzyme ([…] in proteoliposomes). The format is biochemical.

The target of experiment [2] is T1, complex I (NADH:ubiquinone oxidoreductase), Pd-CI. The experiment is described as above. The format is biochemical. The source holds these as a separate data set.

For two compounds, IC50 results are on record in article PMC8115037, “Paracoccus denitrificans: a genetically tractable model system for studying respiratory complex I” (Scientific Reports, 2021).

Broadly, the IC50 is the concentration that gives 50% inhibition. Lower therefore signals higher potency.

Where two headings read alike, the source gives them in different places.

T1 sequence (A1B496 entry or part of it): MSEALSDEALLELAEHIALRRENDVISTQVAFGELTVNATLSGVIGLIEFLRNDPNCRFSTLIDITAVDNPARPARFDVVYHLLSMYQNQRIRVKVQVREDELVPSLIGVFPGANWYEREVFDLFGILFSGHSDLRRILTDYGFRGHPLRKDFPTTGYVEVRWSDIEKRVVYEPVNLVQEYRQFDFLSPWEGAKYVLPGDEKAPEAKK
T1 sequence (A1B495 whole entry): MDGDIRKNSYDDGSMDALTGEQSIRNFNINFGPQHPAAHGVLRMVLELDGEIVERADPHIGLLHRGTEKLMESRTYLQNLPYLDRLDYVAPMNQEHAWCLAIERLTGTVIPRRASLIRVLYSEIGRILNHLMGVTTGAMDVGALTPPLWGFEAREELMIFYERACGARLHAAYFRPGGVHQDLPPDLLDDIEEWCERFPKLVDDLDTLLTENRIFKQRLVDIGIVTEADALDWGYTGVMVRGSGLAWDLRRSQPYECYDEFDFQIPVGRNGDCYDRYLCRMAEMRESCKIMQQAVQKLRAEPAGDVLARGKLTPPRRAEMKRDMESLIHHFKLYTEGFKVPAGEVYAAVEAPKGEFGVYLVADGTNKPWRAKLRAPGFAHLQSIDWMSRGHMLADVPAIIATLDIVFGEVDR
T1 sequence (A1B487 whole entry): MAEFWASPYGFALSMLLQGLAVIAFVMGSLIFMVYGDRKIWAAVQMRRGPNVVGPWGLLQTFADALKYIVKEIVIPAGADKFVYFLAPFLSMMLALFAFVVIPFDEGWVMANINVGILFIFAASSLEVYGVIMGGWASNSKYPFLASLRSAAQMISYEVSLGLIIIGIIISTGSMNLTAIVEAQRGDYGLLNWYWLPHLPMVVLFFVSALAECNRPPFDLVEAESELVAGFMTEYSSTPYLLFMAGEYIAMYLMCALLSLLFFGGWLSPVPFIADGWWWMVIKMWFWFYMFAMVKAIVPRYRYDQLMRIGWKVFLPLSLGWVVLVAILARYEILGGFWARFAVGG
T1 sequence (A1B498 entry or part of it, further chain): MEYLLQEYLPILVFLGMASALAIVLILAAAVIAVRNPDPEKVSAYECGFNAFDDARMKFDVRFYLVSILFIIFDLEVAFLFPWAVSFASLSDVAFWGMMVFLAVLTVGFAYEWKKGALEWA
T1 sequence (A1B497 whole entry): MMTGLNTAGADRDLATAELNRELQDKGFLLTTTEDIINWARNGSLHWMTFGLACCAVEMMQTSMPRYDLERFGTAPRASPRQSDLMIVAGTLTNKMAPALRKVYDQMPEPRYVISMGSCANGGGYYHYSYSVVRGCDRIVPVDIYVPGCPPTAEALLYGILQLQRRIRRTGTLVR

Take `C/C=C(\C)[C@H](O)[C@H](C)/C=C(C)/C=C/C/C(C)=C/Cc1nc(OC)c(OC)c(O)c1C` [piericidin A]: the IC50 in experiment [1] was found to be 72 ± 7 nM.

As to `C=C(C)[C@H]1Cc2c(ccc3c2O[C@@H]2COc4cc(OC)c(OC)cc4[C@@H]2C3=O)O1` [rotenone], the IC50 in experiment [2] stood at 2230 ± 185 nM.
